Data on 2 molecules can be found in ChEMBL document CHEMBL1127314, “A new potent and selective histamine H3 receptor agonist, 4-(1H-imidazol-4-ylmethyl)piperidine” (J Med Chem, 1994).

Series [1] addresses Histamine H3 receptor (Cavia porcellus) (UniProt Q9JI35). In words: KL value determined on H3 receptor.
Series [2] can be described thus: pD2 value was determined on jejunum preparations of eight different animals. The class given is ADME, tissue-based.
Series [3] has as its target Histamine H3 receptor (Cavia porcellus) (UniProt Q9JI35). As to the kind of experiment: H3 receptor agonistic activity of the compound. The format is functional.
Series [4] is described as follows: pKi log value determined for the guinea pig H1 receptor. The class given is ADME.

Sequence of Histamine H3 receptor (Cavia porcellus) (Q9JI35 whole entry): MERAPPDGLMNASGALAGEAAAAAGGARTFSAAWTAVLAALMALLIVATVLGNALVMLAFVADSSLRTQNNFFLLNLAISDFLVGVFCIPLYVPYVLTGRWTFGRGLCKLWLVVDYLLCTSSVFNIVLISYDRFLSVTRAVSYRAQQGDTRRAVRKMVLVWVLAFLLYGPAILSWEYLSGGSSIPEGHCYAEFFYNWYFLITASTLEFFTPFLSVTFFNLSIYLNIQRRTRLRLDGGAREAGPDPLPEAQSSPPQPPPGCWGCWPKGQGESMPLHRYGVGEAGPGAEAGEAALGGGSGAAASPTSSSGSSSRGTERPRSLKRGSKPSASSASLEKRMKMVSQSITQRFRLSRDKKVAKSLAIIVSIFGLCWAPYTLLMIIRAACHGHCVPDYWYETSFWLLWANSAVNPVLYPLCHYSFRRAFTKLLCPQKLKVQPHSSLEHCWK

Turning to `C[C@@H](N)Cc1c[nH]cn1`, the KL in series [1] was determined as 0.22 µM. Also, the pD2 in series [2] was determined as 7.8. In series [3], this molecule registered a KH of 4.3 nM.

On to `c1nc(CC2CCNCC2)c[nH]1` [IMMEPIP], for which the KL in series [1] amounted to 1.01 µM. This molecule yielded a pD2 in series [2] of 8. Also, the KH in series [3] turned out to be 2.7 nM. Moreover, the “Log Ki” value in series [4] is -4.79.
